{"source": "PubChem BioAssay AID1963441", "about": "(Molecular Pharmacology Branch, DTP, NCI, 2024)", "system": "NCI-H1876 complex spheroid growth, % test/control", "assay": "Anticancer human tumor NCI-H1876 cell line growth inhibition [Asc];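 on all read-outs here: compound exposure lasted 7 days starting three days after seeding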;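 on viability, T/C: 100% = DMSO vehicle control wells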", "details": "for IC50: curve of first compound; for viability, T/C: stronger effect = lower value", "summary_of_the_method": "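Concentration series start at each agent's clinical Cmax, or at 10 microM when none is established, and drop in half-log steps; agents are applied alone or together to complex spheroids built with HUVEC and hMSC.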"}
{"molecule": "NC(=O)C(=Cn1cnc(-c2cc(C(F)(F)F)cc(C(F)(F)F)c2)n1)c1cncnc1", "note": "+ CNC(C)C(=O)NC1CN(S(=O)(=O)c2cccc(S(=O)(=O)N3CCC4CCC(C(=O)NC(c5ccccc5)c5ccccc5)N4C(=O)C(NC(=O)C(C)NC)C3)c2)CCC2CCC(C(=O)NC(c3ccccc3)c3ccccc3)N2C1=O", "values": [{"measurement": "IC50", "setting": "second compound 0.00316 µM", "result": "> 300", "unit": "nM"}, {"measurement": "IC50", "setting": "second compound 0.01 µM", "result": "> 300", "unit": "nM"}, {"measurement": "IC50", "setting": "second compound 0.0316 µM", "result": "> 300", "unit": "nM"}, {"measurement": "IC50", "setting": "second compound 0.1 µM", "result": "> 300", "unit": "nM"}, {"measurement": "IC50", "setting": "second compound 0.316 µM", "result": "> 300", "unit": "nM"}, {"measurement": "IC50", "setting": "second compound 1 µM", "result": "> 300", "unit": "nM"}, {"measurement": "viability, T/C", "setting": "second compound 0.00316 µM, first compound 0.000949 µM", "result": 110, "unit": "%"}, {"measurement": "viability, T/C", "setting": "second compound 0.00316 µM, first compound 0.003 µM", "result": 92.8, "unit": "%"}, {"measurement": "viability, T/C", "setting": "second compound 0.00316 µM, first compound 0.00949 µM", "result": 91.9, "unit": "%"}, {"measurement": "viability, T/C", "setting": "second compound 0.00316 µM, first compound 0.03 µM", "result": 83.8, "unit": "%"}, {"measurement": "viability, T/C", "setting": "second compound 0.00316 µM, first compound 0.0949 µM", "result": 100, "unit": "%"}, {"measurement": "viability, T/C", "setting": "second compound 0.00316 µM, first compound 0.3 µM", "result": 105, "unit": "%"}, {"measurement": "viability, T/C", "setting": "second compound 0.01 µM, first compound 0.000949 µM", "result": 93.4, "unit": "%"}, {"measurement": "viability, T/C", "setting": "second compound 0.01 µM, first compound 0.003 µM", "result": 90.6, "unit": "%"}, {"measurement": "viability, T/C", "setting": "second compound 0.01 µM, first compound 0.00949 µM", "result": 96.6, "unit": "%"}, {"measurement": "viability, T/C", "setting": "second compound 0.01 µM, first compound 0.03 µM", "result": 92.4, "unit": "%"}, {"measurement": "viability, T/C", "setting": "second compound 0.01 µM, first compound 0.0949 µM", "result": 108, "unit": "%"}, {"measurement": "viability, T/C", "setting": "second compound 0.01 µM, first compound 0.3 µM", "result": 98.2, "unit": "%"}, {"measurement": "viability, T/C", "setting": "second compound 0.0316 µM, first compound 0.000949 µM", "result": 91.4, "unit": "%"}, {"measurement": "viability, T/C", "setting": "second compound 0.0316 µM, first compound 0.003 µM", "result": 102, "unit": "%"}, {"measurement": "viability, T/C", "setting": "second compound 0.0316 µM, first compound 0.00949 µM", "result": 92.4, "unit": "%"}, {"measurement": "viability, T/C", "setting": "second compound 0.0316 µM, first compound 0.03 µM", "result": 92.5, "unit": "%"}, {"measurement": "viability, T/C", "setting": "second compound 0.0316 µM, first compound 0.0949 µM", "result": 104, "unit": "%"}, {"measurement": "viability, T/C", "setting": "second compound 0.0316 µM, first compound 0.3 µM", "result": 94, "unit": "%"}, {"measurement": "viability, T/C", "setting": "second compound 0.1 µM, first compound 0.000949 µM", "result": 86.2, "unit": "%"}, {"measurement": "viability, T/C", "setting": "second compound 0.1 µM, first compound 0.003 µM", "result": 93.9, "unit": "%"}, {"measurement": "viability, T/C", "setting": "second compound 0.1 µM, first compound 0.00949 µM", "result": 93.5, "unit": "%"}, {"measurement": "viability, T/C", "setting": "second compound 0.1 µM, first compound 0.03 µM", "result": 104, "unit": "%"}, {"measurement": "viability, T/C", "setting": "second compound 0.1 µM, first compound 0.0949 µM", "result": 102, "unit": "%"}, {"measurement": "viability, T/C", "setting": "second compound 0.1 µM, first compound 0.3 µM", "result": 103, "unit": "%"}, {"measurement": "viability, T/C", "setting": "second compound 0.316 µM, first compound 0.000949 µM", "result": 95.6, "unit": "%"}, {"measurement": "viability, T/C", "setting": "second compound 0.316 µM, first compound 0.003 µM", "result": 96.9, "unit": "%"}, {"measurement": "viability, T/C", "setting": "second compound 0.316 µM, first compound 0.00949 µM", "result": 88.6, "unit": "%"}, {"measurement": "viability, T/C", "setting": "second compound 0.316 µM, first compound 0.03 µM", "result": 90.1, "unit": "%"}, {"measurement": "viability, T/C", "setting": "second compound 0.316 µM, first compound 0.0949 µM", "result": 100, "unit": "%"}, {"measurement": "viability, T/C", "setting": "second compound 0.316 µM, first compound 0.3 µM", "result": 91.5, "unit": "%"}, {"measurement": "viability, T/C", "setting": "second compound 1 µM, first compound 0.000949 µM", "result": 96.8, "unit": "%"}, {"measurement": "viability, T/C", "setting": "second compound 1 µM, first compound 0.003 µM", "result": 93.6, "unit": "%"}, {"measurement": "viability, T/C", "setting": "second compound 1 µM, first compound 0.00949 µM", "result": 102, "unit": "%"}, {"measurement": "viability, T/C", "setting": "second compound 1 µM, first compound 0.03 µM", "result": 95.9, "unit": "%"}, {"measurement": "viability, T/C", "setting": "second compound 1 µM, first compound 0.0949 µM", "result": 104, "unit": "%"}, {"measurement": "viability, T/C", "setting": "second compound 1 µM, first compound 0.3 µM", "result": 86.3, "unit": "%"}]}
{"molecule": "NC1CCC(NC2CC2c2ccccc2)CC1", "note": "(centres undefined) + CNC(C)C(=O)NC1CN(S(=O)(=O)c2cccc(S(=O)(=O)N3CCC4CCC(C(=O)NC(c5ccccc5)c5ccccc5)N4C(=O)C(NC(=O)C(C)NC)C3)c2)CCC2CCC(C(=O)NC(c3ccccc3)c3ccccc3)N2C1=O", "values": [{"measurement": "IC50", "setting": "second compound 0.00316 µM", "result": "> 100", "unit": "nM"}, {"measurement": "IC50", "setting": "second compound 0.01 µM", "result": "> 100", "unit": "nM"}, {"measurement": "IC50", "setting": "second compound 0.0316 µM", "result": "> 100", "unit": "nM"}, {"measurement": "IC50", "setting": "second compound 0.1 µM", "result": "> 100", "unit": "nM"}, {"measurement": "IC50", "setting": "second compound 0.316 µM", "result": "> 100", "unit": "nM"}, {"measurement": "IC50", "setting": "second compound 1 µM", "result": "> 100", "unit": "nM"}, {"measurement": "viability, T/C", "setting": "second compound 0.00316 µM, first compound 0.000316 µM", "result": 119, "unit": "%"}, {"measurement": "viability, T/C", "setting": "second compound 0.00316 µM, first compound 0.001 µM", "result": 118, "unit": "%"}, {"measurement": "viability, T/C", "setting": "second compound 0.00316 µM, first compound 0.00316 µM", "result": 132, "unit": "%"}, {"measurement": "viability, T/C", "setting": "second compound 0.00316 µM, first compound 0.01 µM", "result": 133, "unit": "%"}, {"measurement": "viability, T/C", "setting": "second compound 0.00316 µM, first compound 0.0316 µM", "result": 131, "unit": "%"}, {"measurement": "viability, T/C", "setting": "second compound 0.00316 µM, first compound 0.1 µM", "result": 119, "unit": "%"}, {"measurement": "viability, T/C", "setting": "second compound 0.01 µM, first compound 0.000316 µM", "result": 119, "unit": "%"}, {"measurement": "viability, T/C", "setting": "second compound 0.01 µM, first compound 0.001 µM", "result": 121, "unit": "%"}, {"measurement": "viability, T/C", "setting": "second compound 0.01 µM, first compound 0.00316 µM", "result": 121, "unit": "%"}, {"measurement": "viability, T/C", "setting": "second compound 0.01 µM, first compound 0.01 µM", "result": 124, "unit": "%"}, {"measurement": "viability, T/C", "setting": "second compound 0.01 µM, first compound 0.0316 µM", "result": 128, "unit": "%"}, {"measurement": "viability, T/C", "setting": "second compound 0.01 µM, first compound 0.1 µM", "result": 140, "unit": "%"}, {"measurement": "viability, T/C", "setting": "second compound 0.0316 µM, first compound 0.000316 µM", "result": 116, "unit": "%"}, {"measurement": "viability, T/C", "setting": "second compound 0.0316 µM, first compound 0.001 µM", "result": 118, "unit": "%"}, {"measurement": "viability, T/C", "setting": "second compound 0.0316 µM, first compound 0.00316 µM", "result": 138, "unit": "%"}, {"measurement": "viability, T/C", "setting": "second compound 0.0316 µM, first compound 0.01 µM", "result": 125, "unit": "%"}, {"measurement": "viability, T/C", "setting": "second compound 0.0316 µM, first compound 0.0316 µM", "result": 127, "unit": "%"}, {"measurement": "viability, T/C", "setting": "second compound 0.0316 µM, first compound 0.1 µM", "result": 127, "unit": "%"}, {"measurement": "viability, T/C", "setting": "second compound 0.1 µM, first compound 0.000316 µM", "result": 121, "unit": "%"}, {"measurement": "viability, T/C", "setting": "second compound 0.1 µM, first compound 0.001 µM", "result": 128, "unit": "%"}, {"measurement": "viability, T/C", "setting": "second compound 0.1 µM, first compound 0.00316 µM", "result": 128, "unit": "%"}, {"measurement": "viability, T/C", "setting": "second compound 0.1 µM, first compound 0.01 µM", "result": 128, "unit": "%"}, {"measurement": "viability, T/C", "setting": "second compound 0.1 µM, first compound 0.0316 µM", "result": 128, "unit": "%"}, {"measurement": "viability, T/C", "setting": "second compound 0.1 µM, first compound 0.1 µM", "result": 121, "unit": "%"}, {"measurement": "viability, T/C", "setting": "second compound 0.316 µM, first compound 0.000316 µM", "result": 131, "unit": "%"}, {"measurement": "viability, T/C", "setting": "second compound 0.316 µM, first compound 0.001 µM", "result": 113, "unit": "%"}, {"measurement": "viability, T/C", "setting": "second compound 0.316 µM, first compound 0.00316 µM", "result": 118, "unit": "%"}, {"measurement": "viability, T/C", "setting": "second compound 0.316 µM, first compound 0.01 µM", "result": 130, "unit": "%"}, {"measurement": "viability, T/C", "setting": "second compound 0.316 µM, first compound 0.0316 µM", "result": 143, "unit": "%"}, {"measurement": "viability, T/C", "setting": "second compound 0.316 µM, first compound 0.1 µM", "result": 124, "unit": "%"}, {"measurement": "viability, T/C", "setting": "second compound 1 µM, first compound 0.000316 µM", "result": 122, "unit": "%"}, {"measurement": "viability, T/C", "setting": "second compound 1 µM, first compound 0.001 µM", "result": 129, "unit": "%"}, {"measurement": "viability, T/C", "setting": "second compound 1 µM, first compound 0.00316 µM", "result": 136, "unit": "%"}, {"measurement": "viability, T/C", "setting": "second compound 1 µM, first compound 0.01 µM", "result": 131, "unit": "%"}, {"measurement": "viability, T/C", "setting": "second compound 1 µM, first compound 0.0316 µM", "result": 137, "unit": "%"}, {"measurement": "viability, T/C", "setting": "second compound 1 µM, first compound 0.1 µM", "result": 143, "unit": "%"}]}
